Reference: patent US11529359B2, “Use of GABAA receptor modulators for treatment of itch” (UNIVERSITÄT ZÜRICH, priority 2016, dated 2022)

Key:
α5 GABAA receptors = molecular target: T1, α5 GABAA receptors (Mus musculus, UniProt P22723+Q8BHJ7); assay: α-Me-5HT-induced itch (cheek injection) in RRRH triple point-mutated mice (α5 only); assay type: in vivo, mice (129X1/SvJ genetic background); settings: DZP 10 mg/kg per oral 1 h before 20 μg α-Me-5HT, 20 min
T1 construct: endogenous in cells; host or cells: living triple point-mutated mice with only α5 diazepam-sensitive
Description: (§1) Because mice of this particular genetic background (129SvJ) have not yet been systematically analyzed in itch experiments, the inventors first assessed the sensitivity of these mice to a battery of pruritogens injected into the right cheek.
(§2) Acute itch was assessed in mice that received intradermal microinjections of pruritogens or 0.9% saline into the right cheek, which had been shaved at least one day before the experiment. In two sets of experiments that addressed the contribution of GABAARs in primary and secondary pruritoceptors, pruritogens were injected in the right thigh (FIG. 17). Before injection, mice were acclimatized to a 15 cm diameter cylindrical enclosure for more than 30 min with cage bedding on the ground. Background white noise generated by a radio in the room at ambient volume was applied to prevent auditory distraction. […] Videos were analyzed off-line. Scratching of the hind paw directed to the ipsilateral cheek was counted in bouts, with one scratching bout defined as an instance when the mouse lifted its paw to scratch until it returned the paw to the cage floor. In case of experiments in which the pruritogen was injected in the skin of the thigh, the time spent biting the injected skin area was counted in s/min as a measure of itch.

α3 GABAA receptors = molecular target: T2, α3 GABAA receptors (Mus musculus, UniProt P22723+P26049); assay: α-Me-5HT-induced itch (cheek injection) in RRHR triple point-mutated mice (α3 only); assay type: in vivo, mice (129X1/SvJ genetic background)
T2 construct: endogenous in cells; host or cells: living RRHR triple point-mutated mice (129X1/SvJ)
Description: as §1, §2

[1] = system: α2, α3 or α5 GABAA receptors; assay: oxazolone contact dermatitis model of chronic itch in GABAAR triple point-mutated mice; assay type: in vivo, mice (129X1/SvJ genetic background); settings: 10 mg/kg i.p. on day 18; recorded 4 hours after injection
α2 GABAA receptors = molecular target: T3, α2 GABAA receptors (Mus musculus, UniProt P22723+P26048); assay: α-Me-5HT-induced itch (cheek injection) in RHRR triple point-mutated mice (α2 only); assay type: in vivo, mice (129X1/SvJ genetic background)
T3 construct: endogenous in cells; host or cells: living RHRR triple point-mutated mice (129X1/SvJ)
Description: as §1, §2

[2] = system: contact dermatitis-induced chronic itch; assay: oxazolone contact dermatitis model of chronic itch in wild-type mice; assay type: in vivo, wild-type C57BL6/J mice; settings: 10 mg/kg i.p. on day 18; 15 to 210 min after injection
Description: Thus, TPA023B is, in accordance with the other findings of the inventors, suitable as an antipruritic substance.
This was independent of the treatment they received from day 7 to day 27.
The inventors sought to confirm the antipruritic efficacy of α2 and α3 GABAA receptor agonists against contact dermatitis-induced chronic itch. To this end, N-desmethyl clobazam, a benzodiazepine with improved activity at α2 versus α1 was assessed for its antipruritic effects (Jensen et al. PLoS One. 2014 Feb. 12; 9(2):e88456.).
Chronic itch was investigated in the contact dermatitis model (Kido-Nakahara, M., et al. J Clin Invest, 2014, 124, 2683-2695). Mice were treated once with 10% oxazolone in acetone/olive oil (4:1 v/v) on the shaved nape of the neck (100 μl) on day 0. After a resting period of 7 days, mice were treated with 1% oxazolone in acetone/olive oil (4:1 v/v) on the nape of the neck (100 μl) every other day for 10 days. On the day of the experiment, mice were injected with drug or vehicle i.p. under short and light isoflurane anesthesia. […]

α-Me-5HT-induced itch = assay: α-methyl 5-HT-induced itch (cheek injection) in wild-type mice; assay type: in vivo, wild-type mice (129X1/SvJ)
α3 GABAA receptor = molecular target: T4, α3 GABAA receptor (Mus musculus, UniProt P22723+P26049, H154R); assay: α-Me-5HT-induced itch in HHRH mice (α3-GABAAR DZP-insensitive); assay type: in vivo; settings: 10 mg/kg per oral 1 h before 20 μg α-Me-5HT; 20 min
T4 construct: endogenous in cells; host or cells: living HHRH single point-mutated mice (knock-in)
Description: Wild-type and GABAAR single point mutated mice in which only α3 is rendered DZP-insensitive (HHRH mice) received per oral injection of 10 mg/kg TP003 or vehicle. One hour after injection, the mice received a 20 μg α-Me-5HT cheek injection to elicit itching. Over the course of twenty minutes scratching bouts directed at the ipsilateral cheek were recorded and TP003 injected mice compared with vehicle injected control mice (FIGS. 8A & 8B).
as §2, with “ground.” for “ground. Background white noise generated by a radio in the room at ambient volume was applied to prevent auditory distraction.”

[3] = system: brain membranes prepared from α1,2,3,5 H→R point mutated mice; assay type: binding, mice (RRRR); settings: 4 nM [3H]Ro 15-4513; increasing concentrations; n=4
Description: The supernatant was centrifuged for 20 min at 30,000 g and the resulting crude membrane pellet was washed once with buffer. […] Non-specific [^3H]Ro 15-4513 binding was assessed by addition of 10 μM flumazenil to the reaction. Incubation was stopped by rapid vacuum filtration using a semiautomatic cell harvester (Skatron Instruments) and washed filters were subjected to liquid scintillation counting.

chloroquine-induced itch = chloroquine-induced itch (cheek injection) in wild-type mice; assay type: in vivo, wild-type C57BL6/J mice; settings: 30 mg/kg intraperitoneal; 100 μg chloroquine; 30 min
Description: as §2, with “distraction. A 30 gauge needle was inserted bevel-up and pushed 5 mm horizontally into the skin beyond the point of insertion, before injection of the pruritogen (in a total volume of 10 μl). No anesthesia was used. Correct injection was confirmed by the appearance of a slightly domed bulla upon injection.” for “distraction.”

T3 sequence (P26048 29-451): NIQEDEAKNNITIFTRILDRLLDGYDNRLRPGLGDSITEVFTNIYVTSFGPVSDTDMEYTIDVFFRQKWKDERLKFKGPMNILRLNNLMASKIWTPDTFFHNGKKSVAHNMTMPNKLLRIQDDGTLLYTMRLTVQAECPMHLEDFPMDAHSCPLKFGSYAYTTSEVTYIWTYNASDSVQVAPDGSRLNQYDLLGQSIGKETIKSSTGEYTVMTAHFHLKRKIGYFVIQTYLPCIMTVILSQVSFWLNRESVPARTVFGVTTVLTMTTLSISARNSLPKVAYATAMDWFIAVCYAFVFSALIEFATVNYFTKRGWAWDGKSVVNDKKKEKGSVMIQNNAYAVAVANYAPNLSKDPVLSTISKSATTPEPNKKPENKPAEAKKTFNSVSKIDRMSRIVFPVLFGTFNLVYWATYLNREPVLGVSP
T3 sequence (P63080 26-473 partner): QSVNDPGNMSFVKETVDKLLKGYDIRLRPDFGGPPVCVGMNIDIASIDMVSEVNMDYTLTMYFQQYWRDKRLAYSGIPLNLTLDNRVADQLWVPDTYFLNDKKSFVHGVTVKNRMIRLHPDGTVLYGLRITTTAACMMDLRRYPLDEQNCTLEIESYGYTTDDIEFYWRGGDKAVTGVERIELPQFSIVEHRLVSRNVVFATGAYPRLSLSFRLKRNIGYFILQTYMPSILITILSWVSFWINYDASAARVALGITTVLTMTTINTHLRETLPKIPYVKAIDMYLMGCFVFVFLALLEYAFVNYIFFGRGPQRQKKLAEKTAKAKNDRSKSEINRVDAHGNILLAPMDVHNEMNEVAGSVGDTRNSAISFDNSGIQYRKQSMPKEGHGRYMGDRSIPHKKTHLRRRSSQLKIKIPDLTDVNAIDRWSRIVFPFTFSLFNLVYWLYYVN
T3 sequence (P22723 39-474): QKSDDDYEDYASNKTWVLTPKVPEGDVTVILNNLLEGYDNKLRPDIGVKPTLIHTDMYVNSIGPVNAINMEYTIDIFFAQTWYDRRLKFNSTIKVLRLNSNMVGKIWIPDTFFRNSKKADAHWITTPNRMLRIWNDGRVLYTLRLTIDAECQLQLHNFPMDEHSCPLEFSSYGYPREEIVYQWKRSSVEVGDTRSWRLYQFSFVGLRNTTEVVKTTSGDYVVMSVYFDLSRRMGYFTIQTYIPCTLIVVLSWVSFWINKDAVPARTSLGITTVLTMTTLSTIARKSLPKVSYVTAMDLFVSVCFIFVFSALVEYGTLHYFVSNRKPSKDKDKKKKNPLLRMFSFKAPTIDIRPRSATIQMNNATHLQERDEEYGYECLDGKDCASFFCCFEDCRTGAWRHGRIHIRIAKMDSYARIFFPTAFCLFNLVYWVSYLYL
T2 sequence (P26049 29-492): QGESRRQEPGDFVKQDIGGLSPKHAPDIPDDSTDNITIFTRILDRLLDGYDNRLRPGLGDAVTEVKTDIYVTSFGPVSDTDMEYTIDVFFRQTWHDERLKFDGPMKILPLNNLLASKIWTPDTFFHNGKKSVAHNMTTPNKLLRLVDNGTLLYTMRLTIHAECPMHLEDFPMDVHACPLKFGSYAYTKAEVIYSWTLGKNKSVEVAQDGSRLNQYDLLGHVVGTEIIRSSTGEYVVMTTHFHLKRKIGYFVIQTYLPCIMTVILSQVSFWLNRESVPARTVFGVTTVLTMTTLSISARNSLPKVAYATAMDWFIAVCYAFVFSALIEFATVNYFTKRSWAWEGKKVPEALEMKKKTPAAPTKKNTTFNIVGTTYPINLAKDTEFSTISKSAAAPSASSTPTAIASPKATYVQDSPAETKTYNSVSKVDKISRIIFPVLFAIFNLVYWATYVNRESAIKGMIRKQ
T2 sequence (P63080 26-473 partner): as the sequence (P63080 26-473 partner) above
T2 sequence (P22723 39-474): as the sequence (P22723 39-474) above
T4 sequence (P26049 29-492 H154R): as the sequence (P26049 29-492) above, with H126R counted along it
T4 sequence (P63080 26-473 partner): as the sequence (P63080 26-473 partner) above
T4 sequence (P22723 39-474): as the sequence (P22723 39-474) above
T1 sequence (Q8BHJ7 32-463 limits assumed): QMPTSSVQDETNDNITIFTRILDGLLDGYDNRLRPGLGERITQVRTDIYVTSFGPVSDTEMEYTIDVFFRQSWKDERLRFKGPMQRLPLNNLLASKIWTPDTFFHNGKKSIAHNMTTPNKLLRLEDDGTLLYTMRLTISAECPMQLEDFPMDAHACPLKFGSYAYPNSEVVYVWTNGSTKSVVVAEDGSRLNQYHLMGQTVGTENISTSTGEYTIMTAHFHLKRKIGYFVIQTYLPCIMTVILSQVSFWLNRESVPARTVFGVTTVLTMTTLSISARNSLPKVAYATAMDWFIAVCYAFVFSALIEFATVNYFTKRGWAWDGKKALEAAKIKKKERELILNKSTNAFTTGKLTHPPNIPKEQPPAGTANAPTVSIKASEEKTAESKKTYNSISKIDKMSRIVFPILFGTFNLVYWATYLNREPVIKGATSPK
T1 sequence (P63080 26-473 partner): as the sequence (P63080 26-473 partner) above
T1 sequence (P22723 39-474): as the sequence (P22723 39-474) above

CN1C(=O)CN=C(c2ccccc2)c2cc(Cl)ccc21 [DZP, Diazepam]
scratching bouts directed at the ipsilateral cheek vs vehicle (α5 GABAA receptors): no significant reduction in scratching bouts
dose-dependence of antipruritic effects (α3 GABAA receptors; RRHR mice (FIG. 2C), oral DZP 1 h before 20 μg α-Me-5HT): dose-dependent antipruritic effects
scratching bouts directed at the ipsilateral cheek vs vehicle (α3 GABAA receptors; RRHR mice (α3 only), DZP 10 mg/kg per oral 1 h before 20 μg α-Me-5HT, 20 min): significant reduction of scratching bouts
number of scratching bouts directed at the nape of the neck vs vehicle [1]: significant reduction in the number of scratching bouts
scratching bouts directed at the ipsilateral cheek vs vehicle (α2 GABAA receptors; RHRR mice (α2 only), DZP 10 mg/kg per oral 1 h before 20 μg α-Me-5HT, 20 min): significant reduction of scratching bouts
dose-response of scratching bouts (α2 GABAA receptors; RHRR mice, 0.1, 0.3, 1, 3, 10 and 30 mg/kg per oral 1 h before 20 μg α-Me-5HT, 30 min): dose-dependent reduction of scratching bouts

O=C1CC(=O)N(c2ccccc2)c2cc(Cl)ccc2N1 [NDMC, N-desmethyl clobazam]
scratching bouts directed at the nape of the neck vs vehicle [2]: significant reduction in scratching bouts

CC(C)(O)c1ccn2c(-c3ccc(F)c(-c4ccc(F)cc4C#N)c3)cnc2c1F [TP003, 4,2′-difluoro-5′-[8-fluoro-7-(1-hydroxy-1-methylethyl)imidazo[1,2-a]pyridin-3-yl]biphenyl-2-carbonitrile]
scratching bouts directed at the ipsilateral cheek vs vehicle (α-Me-5HT-induced itch; wild-type 129X1/SvJ mice, 10 mg/kg per oral 1 h before 20 μg α-Me-5HT, 20 min): significant reduction of scratching bouts
antipruritic effect in HHRH mice (α3 GABAA receptor): absent

CC(C)(C)OC(=O)c1ncn2c1[C@@H]1CCCN1C(=O)c1c(Br)cccc1-2 [bretazenil]
displacement of [3H]Ro 15-4513 binding [3]: dose-dependently inhibited

CC(=O)[C@H]1CC[C@H]2[C@@H]3CC[C@H]4C[C@](C)(O)CC[C@]4(C)[C@H]3CC[C@]12C [ganaxolone]
number of scratching bouts vs vehicle (chloroquine-induced itch): significant reduction in number scratching bouts

CC(N)Cc1c[nH]c2ccc(O)cc12 (stereo not drawn) [α-methyl 5-HT, α-methyl-5-hydroxy-tryptamine]
scratching behavior directed to the injected site (α-Me-5HT-induced itch; different doses injected into the right cheek, wild-type 129X1/SvJ, 30 min): dose-dependent robust scratching behavior
